According to patent US10329542B2, “HBV RNAse H purification and enzyme inhibitors” (Saint Louis University, priority 2012, dated 2019):
Where two headings read alike, the source gives them in different places.

Assays:
[1] = target: T1, HBV genotype D RNAseH (HRHPL) (Hepatitis B virus genotype D subtype ayw, UniProt P03156, INS679M); experiment: Oligonucleotide-directed RNAseH cleavage assay, HBV genotype D; assay type: biochemical; conditions: for Residual activity at 10 uM, Genotype D: ± standard deviation, 3 to 7 replicates; for Activity vs. HBV Biochemical vs. gtD: class by concentration giving inhibition (10, 20, 60 μM); for IC50: read-out: IC50 against HBV genotype D RNAseH; for Residual activity at 10 uM, Genotype D / Inhibition of HBV genotype D RNAseH: 10 μM; for remaining activity at 10 µM: read-out: Residual activity at 10 uM, Genotype D
T1 construct: HRHPL contains HBV genotype D (Genbank V01460) polymerase residues 684-845; made in house; host or cells: E. coli BL21 codon+
T1 sequence (P03156 680-832, added parts left off, stated change not applied): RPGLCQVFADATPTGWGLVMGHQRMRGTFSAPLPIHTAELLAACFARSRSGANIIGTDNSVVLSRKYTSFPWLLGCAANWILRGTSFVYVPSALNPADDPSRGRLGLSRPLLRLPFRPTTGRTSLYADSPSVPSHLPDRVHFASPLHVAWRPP

HBV genotype H RNAseH = experiment: Oligonucleotide-directed RNAseH cleavage assay, HBV genotype H; assay type: biochemical, Hepatitis B virus; conditions: for Inhibition of HBV genotype H RNAseH / Residual activity at 10 uM, Genotype H: 10 μM; for Inhibition of HBV genotype H RNAseH: below threshold of irrelevant controls; for Residual activity at 10 uM, Genotype H: ± standard deviation, 3 to 7 replicates
Description: (§1) For the oligonucleotide-directed RNAseH cleavage assay (Gong et al., 2001), 6 μl protein extract (typical protein concentration 2.8 mg/ml) was mixed with 0.5 μg internally ^32P-labeled DRF+ RNA (nucleotides 2401-2605 of the duck HBV genome plus 60 nucleotides of flanking sequences from pBluescript) and 3 μg oligonucleotide D2507- or its corresponding negative control D2526+ on ice in 20 μl under the conditions in Table 1. Some reactions in FIG. 5 employed oligonucleotide D2543M-Sal or its D2453+ negative control as indicated. The reactions were incubated at 42° C. for 90 min. and terminated by addition of Laemmli protein loading buffer and boiling. The samples were resolved by 12% SDS-PAGE, the gels were stained with Coomassie blue to monitor protein loading, and labeled RNA was detected by autoradiography. Candidate inhibitors were dissolved in DMSO and added at the indicated concentrations during assembly of the reactions. Control reactions lacking the compounds contained DMSO as a vehicle control. The RNAseH autoradiograms were scanned and quantified with ImageJ. The oligonucleotides were: D2526+([…]; SEQ ID NO:8), D2507-([…]; SEQ ID NO:9), D2453+([…]; SEQ ID NO:10), and D2543M-Sal ([…]; SEQ ID NO:11).
Oligonucleotide-directed RNAseH cleavage assays (Gong et al., 2001) were performed as described (Tavis et al., 2013). Briefly, HBV RNAseH extracts were mixed with a 264 nt-long internally ^32P-labeled RNA plus an excess of a complementary DNA oligonucleotide or its inverse-complement as a negative control in a final concentration of 65 mM Tris pH 8.0, 190 mM NaCl, 5 mM MgCl2, 5 mM dTT, 0.05% NP40, and 6% glycerol. βTJ was dissolved in DMSO and added at the indicated concentrations; the final concentration of DMSO in all reactions was 1%. The reactions were incubated at 42° C. for 90 min. and terminated by addition of Laemmli protein electrophoresis buffer. The samples were resolved by SDS-PAGE, labeled RNA was detected by autoradiography, the autoradiograms were scanned, and the RNA cleavage products were quantified with ImageJ (National Institutes of Health). IC50 values were calculated by non-linear regression using GraphPad Prism (GraphPad Software, Inc.).

[2] = target: T2, chimeric HBV:HIV RNAseH HHC1 (Hepatitis B virus genotype D subtype ayw, UniProt P03156, DELINS787-795[…]/INS679M); experiment: Oligonucleotide-directed RNAseH cleavage assay, chimeric HHC1; assay type: biochemical; conditions: 10 μM; ± standard deviation, 3 to 7 replicates
T2 construct: HHC1 is an HRHPL derivative; made in house; host or cells: E. coli BL21 codon+
T2 sequence (P03156 680-786, added parts left off, stated change not applied): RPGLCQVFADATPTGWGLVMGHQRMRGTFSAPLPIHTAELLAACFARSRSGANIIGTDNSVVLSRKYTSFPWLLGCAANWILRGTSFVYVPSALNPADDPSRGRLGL
From the text: pCMV-HBV-LE-(CMV-HBV) is an HBV over-length genomic expression vector containing 1.2 copies of the HBV(adw2) genome (Genbank X02763.1) downstream of the CMV promoter cloned into pBS (Promega). Surface protein expression from this vector is ablated by mutating the preS and S open reading frames. pCMV-HBV(genotype D) is an analogous HBV genomic expression construct and was a gift from Dr. Shuping Tong (Brown University). For bacterial expression, codon-optimized cDNA sequences for HRHPL (genotypes A, B, C, D, and H), and noncodon-optimized sequences for HHC1 and HHC2 were cloned by gene synthesis (Genscript) between the NcoI and EcoRI sites into pTrcHis2B (Invitrogen) with a C-terminal hexahistidine tag. HRHPL contains HBV genotype D (Genbank V01460) polymerase residues 684-845. HHC1 is an HRHPL derivative in which HBV polymerase residues 800-808 were replaced with HIV residues corresponding to the RNAseH helix D ([…]; SEQ ID NO:6). HHC2 is an HRHPL derivative in which HBV polymerase residues 800-845 were replaced with HIV residues corresponding to the RNAseH helix D to the C-terminus ([…]; SEQ ID NO:7). The human RNAseH1 gene (NP_002927.2) was cloned with an N-terminal hexahistidine-tag between the BamHI and XhoI sites of pRsetB (Invitrogen) by gene synthesis.
as §1

HBV = HBV genomic replication assays (Table 2); assay type: cell-based, Hepatitis B virus; conditions: class by active concentration
Procedure, shortened: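 Huh7 cells transfected with HBV plasmid received compound at 10 or 50 μM, refreshed every 1-2 days. Core-particle DNA isolated 4-5 days post-transfection was analysed by Southern blot, with or without RNaseH. For the screen, replicating cells got 60, 20 or 6.7 μM, refreshed days 1-2, and plus-strand DNA was quantified on day 3 by cross-gap TaqMan PCR.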

Row | SMILES | Residual activity at 10 uM, Genotype D [1] [Percent DMSO control] | Activity vs. HBV Biochemical vs. gtD [1] | IC50 [1] [µM] | Inhibition of HBV genotype H RNAseH (HBV genotype H RNAseH) | Residual activity at 10 uM, Genotype H (HBV genotype H RNAseH) [Percent DMSO control] | Residual activity at 10 uM, HHC1 [2] [Percent DMSO control] | Activity vs. HBV Genomic Replication (HBV) | Inhibition of HBV genotype D RNAseH [1] | remaining activity at 10 µM [1] [%] | Difference between IC50 against HIV-1 RNAseH and HBV RNAseH [1] [fold] | IC50 ([1]; listed as β-thujaplicinol) [µM] | IC50 ([1]; listed as βTJ) [µM] | IC50 (HBV genotype H RNAseH; read-out: IC50 against HBV genotype H RNAseH) [µM] | Inhibition ([1]; below 5 μM) | Inhibition ([1]; between 10 and 30 μM)
1 | NCc1ccc(-c2ccc(Cc3cc(=O)n(O)c4ncccc34)cc2)cc1 [Compound 12, napthyridinone] | 28 ± 12 | +++ (+++ inhibition at 10 μM) | 2.5 | inhibited | 17 ± 6 | 32 ± 8 | ++ (++, clear activity at <10 μM) | – | – | – | – | – | – | – | –
2 | Cc1cc(=O)oc2cc(O)c(O)cc12 [Compound 34] | 30 ± 15 | ++ (++ inhibition at 20 μM) | – | inhibited | 33 ± 12 | 39 ± 4 | − (− no activity at 60 μM) | – | – | – | – | – | – | – | –
3 | [N-]=[N+]=NCc1cccc(C(=O)CC(=O)C(=O)O)c1 [Compound 40] | 21 ± 16 | +++ (+++ inhibition at 10 μM) | – | inhibited | 22 ± 2 | 44 ± 10 | − (− no activity at 60 μM) | – | – | – | – | – | – | – | –
4 | CCOc1ccc(-c2c3cc(O)c(=O)cc-3oc3cc(O)c(O)cc23)cc1 [Compound 30] | 23 ± 6 | +++ (+++ inhibition at 10 μM) | – | – | 37 ± 8 | 58 ± 12 | + (+, activity detectable at >10 μM) | – | – | – | – | – | – | – | –
5 | COc1cc2c(cc1Cc1cccc(Cl)c1F)c(=O)c(C(=O)O)cn2[C@H](CO)C(C)C [Compound 10, Elvitegravir, reference compound] | – | ++ (++ inhibition at 20 μM) | – | – | 66 ± 21 | – | − (− no activity at 60 μM) | inhibited the HBV RNAseH | 30 ± 8 | – | – | – | – | – | –
6 | CC(C)c1ccc(O)c(=O)c(O)c1 [Compound 46, beta-thujaplicinol] | – | +++ (+++ inhibition at 10 μM) | – | – | – | – | ++ (++, clear activity at <10 μM) | – | – | ~10 | 6 | 5.9 ± 0.7 | 2.3 ± 1.7 | – | –
7 | Cc1c2cc(O)c(=O)cc-2oc2cc(O)c(O)cc12 [Compound 8] | 33 ± 17 | ++ (++ inhibition at 20 μM) | – | – | 74 ± 21 | 55 ± 18 | − (− no activity at 60 μM) | – | – | – | – | – | – | ineffective | 40-85%
8 | Cc1nnc(C(=O)NC(C)(C)c2nc(C(=O)NCc3ccc(F)cc3)c(O)c(=O)n2C)o1 [Compound 11, Raltegravir, reference compound] | – | ++ (++ inhibition at 20 μM) | – | – | 63 ± 21 | – | − (− no activity at 60 μM) | inhibited the HBV RNAseH | 29 ± 18 | – | – | – | – | – | –
9 | COc1ccc2ccccc2c1C=NNC(=O)c1cc(O)c(O)c(O)c1 [Compound 14] | 46 ± 20 | − (− no inhibition at 60 μM) | – | inhibited | 27 ± 13 | 72 ± 2 | − (− no activity at 60 μM) | – | – | – | – | – | – | – | –
